Experimental data from US20110098180A1, “Herbicide-Resistant Plants, And Polynucleotides And Methods For Providing Same” (United States Department of Agriculture, priority 2002, published 2011).

Assays:
Format in all cases: biochemical, Hydrilla verticillata
[1] = test system: Hydrilla PDS Arg^304 → Phenyalanine; experiment: Fluridone enzyme inhibition assay, non-His-tagged PDS (Table 1); conditions: relative to Arginine
Procedure: (§1) The expression constructs in Table 1 were derived from an original clone of the susceptible PDS gene from Hydrilla and then the Arg^304 was mutated to the listed amino acid. Expression was under the control of the lac promoter […] with the initiation codon of the LacZalpha-ccdB gene in the pCR4-TOPO vector (Invitrogen Inc., CA, Cat. #K4575-01).
(§2) All mutagenesis was performed, unless stated otherwise, using the TOPO-vector containing the wildtype (H4) PDS-sequence, which was extracted from an overnight culture with the Qiagen Plasmid Prep Kit as described above. The amount of the extracted plasmid was diluted to 10 ng/μl and used as template in a mutagenesis-procedure using the QuikChange Site-directed Mutagenesis Kit (Stratagene, Calif., #200518). The design of the mutagenesis-primers was conducted according to the manufacturers protocol to enable the specific change of Arg^304-codon to code for the desired amino acid. Primers (purchased from MWG-Biotech) and their introduced amino acid change are listed below with the changed codon underlined:
(§3) The reactions were performed according to the manufacturers protocol. Reactions were set up in MicroAmp-tubes on ice with 38 μl ddH2O, 5 μl 10× reaction buffer, 2 μl plasmid (10 ng/μl), 1.25 μl forward-mutagenesis primer (100 ng/μl), 1.25 μl of reverse mutagenesis primer (100 ng/μl), 1 μl dNTP-mix and 1 μl PfuTurboDNA polymerase (2.5 U/μl). The reactions were placed in a PE 9700 thermal cycler and heated to 95° C. for 30 sec followed by 12 rounds at 95° C. for 30 sec, 55° C. for 1 min and 68° C. for 12 min. The PCR was followed by a DpnI-digestion and transformation in XL1-Blue supercompetent cells as described in the manual. 4-6 resulting colonies were grown overnight in LB-medium with kanamycin and plasmid DNA was isolated as described above. The plasmid was used as template for sequencing with M13 and internal PDS-primers as described above on a LiCOR-system. Sequences were assembled and analyzed using Seqman. Introduced mutations were identified and plasmids carrying the desired mutation(s) were transferred into competent TOP10-cells, using the transformation protocol from the TOPO TA Cloning Kit. Resulting colonies were grown overnight in Wu-broth with kanamycin, aliquoted and stored at −80° C. until further use. 1 ml of Wu-cultures was used to start 1-L LB-cultures with kanamycin as described before, to express active PDS-enzyme for testing as described.
(§4) Phytoene desaturase activity and its inhibition by herbicides was determined using an in vitro system using components derived from the in vivo production of phytoene and phytoene desaturase proteins. All mutations described in Examples 3 and 4 were tested. […] The clones were used for the heterologous expression of Hydrilla-PDS-enzyme. In particular, bacterial cultures were grown from single colonies overnight in Wu-broth (6.27 g/L K2HPO4, 1.8 g/L KH2PO4, 0.5 g/L Na-citrate, 0.9 g/L (NH4)2SO4, 10 g/L tryptone, 5 g/L yeast extract, 10 g/L NaCl, 44 ml/L glycerol, 0.1 mM MgSO4, pH 7.2) with kanamycin. 1-mL was aliquoted in centrifuge tube and stored at −80° C. For expression, 1 L LB-medium with kanamycin was inoculated with 1-mL Wu-culture and grown for 24 h at 37° C. to stationary phase with shaking at 200 rpm. The cells were collected by centrifugation at 2000×g. All of the following steps were done at 4° C. unless otherwise noted. Active soluble PDS enzyme was extracted by lysing the transformed E. coli cells using a French Press at 20,000 psi in assay buffer consisting of 100 mM Tris-HCl, pH 7.2, 10 mM magnesium-chloride, 0.1 mM NADP, 0.1 mM FAD, 10 mM cysteine, 5 mM DTT, 1 mM aminocaproic acid, and 1 μg/ml leupeptin. The soluble fraction containing PDS activity was obtained by centrifugation for 10 min at 1200×g. After 24 h they were centrifuged down and used in PDS enzyme activity assays as described below.

[2] = test system: Hydrilla PDS Arg^304 → Tyrosine; experiment: as above; conditions: relative to Arginine
Procedure: as §1, §2, §3, §4

[3] = test system: Hydrilla PDS Arg^304 → Methionine; experiment: as above; conditions: relative to Arginine
Procedure: as §1, §2, §3, §4

[4] = test system: Hydrilla PDS Arg^304 → Lysine; experiment: as above; conditions: relative to Arginine
Procedure: as §1, §2, §3, §4

[5] = test system: Hydrilla PDS Arg^304 → Glutamine; experiment: as above; conditions: relative to Arginine
Procedure: as §1, §2, §3, §4

[6] = test system: Hydrilla PDS Arg^304 → Aspartic acid; experiment: as above; conditions: relative to Arginine
Procedure: as §1, §2, §3, §4

[7] = test system: Hydrilla PDS Arg^304 → Isoleucine; experiment: as above; conditions: relative to Arginine
Procedure: as §1, §2, §3, §4

[8] = test system: Hydrilla PDS Arg^304 → Valine; experiment: as above; conditions: relative to Arginine
Procedure: as §1, §2, §3, §4

[9] = test system: Hydrilla PDS Arg^304 → Glutamic acid; experiment: as above; conditions: relative to Arginine
Procedure: as §1, §2, §3, §4

[10] = test system: Hydrilla PDS Arg^304 → Alanine; experiment: as above; conditions: relative to Arginine
Procedure: as §1, §2, §3, §4

[11] = test system: Hydrilla PDS Leu^542 → Arg; experiment: Fluridone enzyme inhibition assay, other substitutions (Table 3)
Procedure: To explore whether mutations at positions other than 304 of the hydrilla PDS enzyme and corresponding positions of other plant PDS enzymes also confer herbicide resistance, mutations discovered in Synechococcus strain PCC7942 (Leu^320→Pro; Val^403→Gly; Leu^436→Arg) were introduced into the hydrilla PDS sequence at the corresponding locations, and the resulting PDS enzymes tested for resistance.
as §4
Generally, PDS protein fractions prepared as described above (Non-His-tagged and His-tagged) were mixed with a soluble fraction from phytoene-producing E. coli cells. […]

Fluridone
R/S [1]: 2.6 | R/S [2]: 4 | R/S [3]: 11.5 | R/S [4]: 5 | R/S [5]: 19 | R/S [6]: 10 | R/S [7]: 10 | R/S [8]: 11 | R/S [9]: 1.5 | R/S [10]: 22.5 | R/S [11]: 4.5
